Read-outs that look alike come from different tables or passages of the source.
Key:
[1] = cited from earlier work
[2] = AHFS Drug Information; cited from earlier work
[3] = Phenytoin solubility in absence and presence of fosphenytoin and (SBE)7m-β-CD; type: physicochemical; settings: 0.02 m tris buffer
Procedure: This work was performed in duplicate.
The fosphenytoin concentration of 80.6 mg/ml (75 mg/ml anhydrous fosphenytoin) was the same as the commercial product. […] The solubility of phenytoin is elevated in the presence of fosphenytoin probably through micellar or complex formation (Anderson et al. J. Pharm. Sci. 74 375-381; Muller et al. Int. J. Pharm. 75 201-209, 1991).

[4] = for Kd: 0.02 m tris buffer
Procedure: After sonication and mixing by vortex mixer, the phenytoin-suspended solutions were placed in a shaking, temperature controlled water bath for at least 5 days at 25° C. After equilibration, checked by periodic sampling, the suspensions were filtered through a membrane filter (Acrodisc, PVDF 0.2 μm, Gelman). The filtrate was isolated and diluted with HPLC mobile phase and the concentration of phenytoin was determined by HPLC. This work was performed in duplicate.
This phenomena is illustrated in Scheme (2). The binding constant for the phenytoin/(SBE)7m-β-CD complex, K1 can be calculated by the slope and intercept of the data from FIG. 3 (absence of fosphenytoin) according to Eq 2 (Hiquchi, T and Connors K. A.) […]
K1 =Slope/Intercept(1-Slope) (2)
K2, the binding constant for the fosphenytoin/(SBE)7m-β-CD complex can be calculated according to Eq. 6 as follows; K1 =(St-So')/(St-(St-So'))(Lt-(St-so')-x)
K1 =Slope/So'(1-Slope-x/Lt) (3)
K2 =x/(St'-x)(Lt-(St-So')-x
=(x/Lt)/(St'-x)(1-Slope-x/Lt) (4) […]
x/Lt=1-Slope-Slope/K1 So' (5)
Eq. 4 and Eq. 5 lead to Eqs. 6 and 7, K2 =(1/(St'-x))K1 So'/Slope-So'K1 -1) (6)
≈(1/St')(K1 So'/Slope-So'K1 -1) (7) where various terms are defined in Scheme (2). The term, St'-x, in Eq. 6 represents the free fraction of fosphenytoin in the presence of CD and theoretically should change with increasing CD concentration.

[5] = literature value; cited from earlier work
[6] = 25° C.
Description: Two different shelf-life criteria were considered; time to exceed phenytoin solubility in the presence and absence of (SBE)7m-β-CD and 0.5% phenytoin production.

[7] = high pH 8.5 formulation, refrigeration; cited from earlier work
[8] = pH values >8.0; cited from earlier work
[9] = Arrhenius plot for phenytoin production rate from fosphenytoin; type: physicochemical
Description: These values are higher than those reported previously; 30.8 kcal/mol and also are higher than Ea values reported from most other drug degradation studies (10-30 kcal/mol) (Yoshioka, S. Stability of Drugs and Dosage Forms, Nankodo Co. Ltd., Tokyo, 1995; pp.30-67). One possible explanation for the difference may be the effect of temperature on the pH of tris buffer solutions. […] Consequently, the change of phenytoin production rate can attribute not only to the direct effect of temperature on the kinetics but also the effect of temperature on pH. Since our principal goal was to study the effect of temperature on the stability of some protype formulations, buffer pH values were not adjusted at each temperature.

Structure (SMILES): O=C1NC(=O)C(c2ccccc2)(c2ccccc2)N1 [phenytoin]
- Solubility ([1]; pH values <8): 20 to 25 µg/mL
- Intrinsic aqueous solubility ([1]; phenytoin, background): less than 25 μg/ml
- pKa value [2]: 8.06-8.33
- solubility at 120 h ([3]; pH 7.4, aqueous buffer, pH 7.4, 0 mM (SBE)7m-β-CD, 25° C., read-out: Phenytoin Conc. (Solubility Criteria)): 49.8 µg/mL
- solubility at 120 h ([3]; pH 7.4, aqueous buffer, pH 7.4, 60 mM (SBE)7m-β-CD, 25° C., read-out: Phenytoin Conc. (Solubility Criteria)): 451 µg/mL
- solubility at 120 h ([3]; pH 7.4, aqueous buffer, pH 7.4, 25° C., absence of fosphenytoin, read-out: Solubility of phenytoin): 18.1 µg/mL
- solubility at 120 h ([3]; pH 7.4, aqueous buffer, pH 7.4, 25° C., presence of fosphenytoin 80.6 mg/ml, read-out: Solubility of phenytoin): 49.8 µg/mL
- solubility at 120 h ([3]; pH 8, aqueous buffer, pH 8.0, 0 mM (SBE)7m-β-CD, 25° C., read-out: Phenytoin Conc. (Solubility Criteria)): 61.9 µg/mL
- solubility at 120 h ([3]; pH 8, aqueous buffer, pH 8.0, 30 mM (SBE)7m-β-CD, 25° C., read-out: Phenytoin Conc. (Solubility Criteria)): 274 µg/mL
- solubility at 120 h ([3]; pH 8, aqueous buffer, pH 8.0, 60 mM (SBE)7m-β-CD, 25° C., read-out: Phenytoin Conc. (Solubility Criteria)): 476 µg/mL
- solubility at 120 h ([3]; pH 8, aqueous buffer, pH 8.0, 25° C., presence of fosphenytoin 80.6 mg/ml, read-out: Solubility of phenytoin): 61.9 µg/mL
- solubility at 120 h ([3]; pH 8, aqueous buffer, pH 8.0, 25° C., printed 'in the absence of phenytoin', read-out: Solubility of phenytoin): 27.5 µg/mL
- Kd ([4]; pH 7.4): 0.932 mM
- Kd ([4]; pH 8): 1.26 mM
- Type of phase solubility diagram ([4]; 25° C., pH 7.4 and 8.0, presence or absence of 80.6 mg/ml fosphenytoin): AL-type
- Solubility enhancement in presence of fosphenytoin vs absence ([4]; (SBE)7m-β-CD, 25° C.): lower than that in the absence of fosphenytoin

Structure (SMILES): O=C1NC(c2ccccc2)(c2ccccc2)C(=O)N1COP(=O)(O)O [fosphenytoin]
- Ea reported previously [5]: 30.8 kcal/mol
- Kd ([4]; pH 7.4): 25.6 mM
- Kd ([4]; pH 8): 29.4 mM
- Kinetics of phenytoin production (0.02M tris, 60° C., pH 7.4 and 8.0): apparent zero-order kinetics
- Influence of (SBE)7m-β-CD on phenytoin production rate (30 or 60 mM (SBE)7m-β-CD, fosphenytoin 80.6 mg/ml): did not appear to influence the phenytoin production rate although here was a very slight trend to greater stability with increasing (SBE)7m-β-CD concentration
- Kinetics of phenytoin production (all temperatures, CD concentrations and both pH values): pseudo zero-order kinetics
- Degradant peaks (phenytoin vs earlier eluting peak) (pH 7.4): phenytoin was the major degradant peak observed
- Rate of Phenytoin Production (pH 7.4, 25° C., 0 mM CD): 0.160 µg/mL/day
- Rate of Phenytoin Production (pH 7.4, 25° C., 60 mM CD): 0.133 µg/mL/day
- Rate of Phenytoin Production (pH 7.4, 37° C., 60 mM CD): 0.993 µg/mL/day
- Rate of Phenytoin Production (pH 7.4, 50° C., 60 mM CD): 21.37 µg/mL/day
- Rate of Phenytoin Production (pH 7.4, 60° C., 0 mM CD): 111.8 µg/mL/day
- Degradant peaks (phenytoin vs earlier eluting peak) (pH 8): this peak had an area comparable to that of phenytoin
- Rate of Phenytoin Production (pH 8.0, 25° C., 0 mM CD): 0.083 µg/mL/day
- Rate of Phenytoin Production (pH 8.0, 25° C., 30 mM CD): 0.088 µg/mL/day
- Rate of Phenytoin Production (pH 8.0, 25° C., 60 mM CD): 0.075 µg/mL/day
- Rate of Phenytoin Production (pH 8.0, 37° C., 0 mM CD): 0.634 µg/mL/day
- Rate of Phenytoin Production (pH 8.0, 37° C., 30 mM CD): 0.600 µg/mL/day
- Rate of Phenytoin Production (pH 8.0, 37° C., 60 mM CD): 0.562 µg/mL/day
- Rate of Phenytoin Production (pH 8.0, 50° C., 30 mM CD): 14.43 µg/mL/day
- Rate of Phenytoin Production (pH 8.0, 50° C., 60 mM CD): 13.82 µg/mL/day
- Rate of Phenytoin Production (pH 8.0, 60° C., 0 mM CD): 67.20 µg/mL/day
- Time without phenytoin precipitation ([6]; 60 mM (SBE)7m-β-CD, either pH): over two years
- Physically stable formulations, shelf-life ([6]; pH range 7.4-8.0): greater than two years
- Time without phenytoin precipitation ([6]; pH 8.0, 60 mM (SBE)7m-β-CD): at least 17 years
- Shelf-life by 0.5% phenytoin production criterion ([6]; with (SBE)7m-β-CD): greater than two year
- Shelf-life of the prodrug product [7]: two years
- Stability at higher pH [8]: more unstable
- Ea (apparent activation energy), phenytoin production ([9]; pH 7.4): 38.9 kcal/mol
- Ea (apparent activation energy), phenytoin production ([9]; pH 8.0): 39.5 kcal/mol

Source: patent US6133248A, “Polar drug of prodrug compositions with extended shelf-life storage and a method of making thereof” (priority 1998, dated 2000)
